Measured values reported in US20230321008A1, “INHIBITORS OF ACID SPHINGOMYELINASE FOR PREVENTING AND TREATING THE COVID-19 DISEASE” (priority 2020, published 2023).
Entries after “also recorded” stand apart in the source; their conditions may differ.

Experiments:
[1] = system: ceramide-enriched membrane domains; settings: in vitro; cited from earlier work
[2] = molecular target: T1, acid sphingomyelinase (ASM) (Homo sapiens, UniProt P17405); settings: cited from earlier work
T1 sequence (P17405 47-631): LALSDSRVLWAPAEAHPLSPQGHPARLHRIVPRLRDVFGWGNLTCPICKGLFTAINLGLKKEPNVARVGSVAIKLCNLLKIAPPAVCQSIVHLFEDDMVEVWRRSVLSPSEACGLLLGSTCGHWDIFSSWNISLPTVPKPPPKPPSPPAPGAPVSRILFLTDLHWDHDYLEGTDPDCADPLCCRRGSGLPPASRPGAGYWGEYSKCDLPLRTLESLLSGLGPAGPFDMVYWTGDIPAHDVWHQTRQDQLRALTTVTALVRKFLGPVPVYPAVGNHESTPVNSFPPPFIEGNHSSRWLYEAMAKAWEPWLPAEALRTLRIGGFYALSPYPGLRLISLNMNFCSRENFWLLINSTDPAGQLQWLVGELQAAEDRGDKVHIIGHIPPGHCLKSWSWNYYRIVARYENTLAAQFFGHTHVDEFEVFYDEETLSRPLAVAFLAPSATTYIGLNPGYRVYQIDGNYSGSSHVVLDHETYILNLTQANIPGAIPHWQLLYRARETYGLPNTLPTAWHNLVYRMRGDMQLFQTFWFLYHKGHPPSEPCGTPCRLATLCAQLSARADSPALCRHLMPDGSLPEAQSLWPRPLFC

SARS-CoV-2 [3] = settings: oral use in healthy volunteers; cited from earlier work
SARS-CoV-2 [4] = settings: cited from earlier work
severe COVID-19 [5] = assay: Example 2: multicenter observational retrospective cohort study, FIASMA medication use at baseline and intubation or death in patients hospitalized for severe COVID-19; format: in vivo, human; settings: vs no FIASMA medication
From the text: We included all adults aged 18 years or over who have been hospitalized in these medical centers for severe COVID-19. COVID-19 was ascertained by a positive reverse-transcriptase-polymerase-chain-reaction (RT-PCR) test from analysis of nasopharyngeal or oropharyngeal swab specimens. Severe COVID-19 at admission was defined as having at least one of the following criteria: respiratory rate > 24 breaths/min or < 12 breaths/min, resting peripheral capillary oxygen saturation in ambient air < 90%, temperature > 40° C., systolic blood pressure < 100 mm Hg or high lactate levels. AP-HP clinical Data Warehouse initiatives ensure patient information and informed consent regarding the different approved studies through a transparency portal in accordance with European Regulation on data protection and authorization n°1980120 from National Commission for Information Technology and Civil Liberties (CNIL).
We used data from the AP-HP Health Data Warehouse (‘Entrepôt de Données de Santé (EDS)’). This warehouse contains all available clinical data on all inpatient visits for COVID-19 to any Greater Paris University hospital. The data included patient demographic characteristics, vital signs, laboratory test and RT-PCR test results, medication administration data, medication lists during current and past hospitalizations in AP-HP hospitals, current diagnoses, discharge disposition, and death certificates.
We obtained the following data for each patient at the time of the hospitalization: sex; age, which was categorized into 4 classes based on the OpenSAFELY study results (i.e. 18-50, 51-70, 71-80, 81+); hospital, which was categorized into 4 classes following the administrative clustering of AP-HP hospitals in Paris and its suburbs based on their geographical location (i.e., AP-HP Centre - Paris University, Henri Mondor University Hospitals and at home hospitalization; AP-HP Nord and Hôpitaux Universitaires Paris Seine-Saint-Denis; AP-HP Paris Saclay University; and AP-HP Sorbonne University); obesity, which was defined as having a body mass index higher than 30 kg/m^2 or an International Statistical Classification of Diseases and Related Health Problems (ICD-10) diagnosis code for obesity (E66.0, E66.1, E66.2, E66.8, E66.9); self-reported current smoking status; and any medication prescribed according to compassionate use or as part of a clinical trial (e.g. hydroxychloroquine, azithromycin, remdesivir, tocilizumab, sarilumab, or dexamethasone). To take into account possible confounding by indication bias for FIASMA medication, we recorded whether patients had any current diagnosis, based on ICD-10 diagnosis codes, for neoplasms and diseases of the blood (C00-D89); mental disorders (F01-F99); diseases of the nervous system (G00-G99); cardiovascular disorders (I00-I99); respiratory disorders (J00-J99); digestive disorders (K00-K95); dermatological disorders (L00-L99); diseases of the musculoskeletal system (M00-M99); diseases of the genitourinary system (N00-N99); endocrine disorders (E00-E89); and eye-ear-nose-throat disorders (H00-H95).
All medical notes and prescriptions are computerized in Greater Paris University hospitals. Medications including their dosage, frequency, date, and mode of administration were identified from medication administration data or scanned handwritten medical prescriptions, through two deep learning models based on BERT contextual embeddings, one for the medications and another for their mode of administration. The model was trained on the APmed corpus, a previously annotated dataset for this task. Extracted medications names were then normalized to the Anatomical Therapeutic Chemical (ATC) terminology using approximate string matching.
FIASMA medication use was defined as receiving at least one FIASMA medication at study baseline, i.e. within the first 24 hours of hospital admission, and before the end of the index hospitalization, intubation or death.

SARS-CoV-2 [6] = settings: in vitro; cited from earlier work
severe COVID-19 [7] = assay: Example 1: multicenter observational retrospective cohort study, FIASMA psychotropic medication use at baseline and intubation or death in patients with mental disorder; format: in vivo, human; settings: patients with mental disorder hospitalized for severe COVID-19; vs not exposed
From the text: We conducted a multicenter observational retrospective cohort study at 36 AP-HP hospitals from the beginning of the epidemic in France, i.e. January 24th, until May 1st. We included all adults aged 18 years or over with a mental disorder who have been hospitalized in these medical centers for severe COVID-19. Mental disorder was defined as having at least one current International Statistical Classification of Diseases and Related Health Problems (ICD-10) diagnosis of mental disorder (F01-F99) during the visit or an ongoing prescription of any antidepressant, antipsychotic, or mood stabilizer (i.e. lithium or antiepileptic medications with mood stabilizing effects) for a psychiatric disorder at hospital admission. COVID-19 was ascertained by a positive reverse-transcriptase-polymerase-chain-reaction (RT-PCR) test from analysis of nasopharyngeal or oropharyngeal swab specimens. […]
We calculated frequencies of baseline characteristics described above in patients receiving or not receiving a FIASMA psychotropic medication and compared them using standardized mean differences (SMD). […]

SARS-CoV-2 [8] = settings: cited from earlier work; remark: listed apart in the source
[9] = molecular target: serotonin 5-HT2A-receptor (Homo sapiens, UniProt P28223); settings: cited from earlier work
Chain of serotonin 5-HT2A-receptor (P28223 whole entry): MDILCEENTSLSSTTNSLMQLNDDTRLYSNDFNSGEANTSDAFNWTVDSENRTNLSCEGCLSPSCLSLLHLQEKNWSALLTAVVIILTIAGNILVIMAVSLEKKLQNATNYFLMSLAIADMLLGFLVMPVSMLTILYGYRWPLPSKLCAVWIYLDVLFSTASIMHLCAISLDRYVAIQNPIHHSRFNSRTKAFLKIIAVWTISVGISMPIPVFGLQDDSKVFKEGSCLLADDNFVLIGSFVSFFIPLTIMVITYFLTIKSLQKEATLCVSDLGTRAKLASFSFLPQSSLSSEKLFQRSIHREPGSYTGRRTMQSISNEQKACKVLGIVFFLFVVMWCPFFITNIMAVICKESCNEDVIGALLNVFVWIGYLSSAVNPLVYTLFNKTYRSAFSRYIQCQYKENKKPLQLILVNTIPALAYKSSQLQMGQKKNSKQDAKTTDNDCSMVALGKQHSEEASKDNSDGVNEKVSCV

dopamine D2 receptor = dopamine D2 receptor (Homo sapiens, UniProt P14416); settings: cited from earlier work
Chain of dopamine D2 receptor (P14416 whole entry, species assumed): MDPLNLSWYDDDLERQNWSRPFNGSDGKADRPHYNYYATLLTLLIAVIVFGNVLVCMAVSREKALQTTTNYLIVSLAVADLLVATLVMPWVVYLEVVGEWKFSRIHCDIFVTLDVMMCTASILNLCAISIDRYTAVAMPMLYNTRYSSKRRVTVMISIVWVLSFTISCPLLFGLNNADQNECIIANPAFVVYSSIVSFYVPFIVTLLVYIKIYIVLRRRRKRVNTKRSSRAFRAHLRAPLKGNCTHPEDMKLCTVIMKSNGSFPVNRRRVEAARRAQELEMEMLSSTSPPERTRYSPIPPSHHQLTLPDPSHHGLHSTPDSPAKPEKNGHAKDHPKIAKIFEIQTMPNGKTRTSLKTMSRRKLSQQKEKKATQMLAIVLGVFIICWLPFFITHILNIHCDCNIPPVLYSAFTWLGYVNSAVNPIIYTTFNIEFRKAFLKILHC

α1-adrenergic receptor = settings: cited from earlier work
COVID-19 [10] = assay: Example 3: multicenter observational retrospective study, hydroxyzine use and death in patients admitted to hospital with COVID-19; format: in vivo, human
COVID-19 [11] = settings: randomized double-blind controlled study; cited from earlier work

| Compound | Formation of ceramide-enriched membrane domains (in words) [1] | In vitro inhibition of acid sphingomyelinase (in words) [2] | Infection of Vero cells with SARS-CoV-2 (in words) (SARS-CoV-2 [4]) | Association of use at baseline with risk of intubation or death (in words) (severe COVID-19 [5]) | Inhibition of viral replication (in words) (SARS-CoV-2 [6]) | Association of use at baseline with risk of intubation or death (in words) (severe COVID-19 [7]) | further results |
| --- | --- | --- | --- | --- | --- | --- | --- |
| CN(C)CCC=C1c2ccccc2CCc2ccccc21 [Amitriptyline, amitriptyline] | inhibited ASM and the formation of ceramide-enriched membrane domains | inhibited ASM; also recorded: in vitro inhibit acid sphingomyelinase with varying degrees | prevented Vero cells from being infected with SARS-CoV-2 |  |  |  | Infection of freshly isolated nasal epithelial cells with SARS-CoV-2 (in words) (SARS-CoV-2 [3]): efficiently blocked infection of freshly isolated nasal epithelial cells with SARS-CoV-2 |
| CN(C)CCC[C@@]1(c2ccc(F)cc2)OCc2cc(C#N)ccc21 [Escitalopram, escitalopram] | inhibited ASM and the formation of ceramide-enriched membrane domains | inhibited ASM; also recorded: in vitro inhibit acid sphingomyelinase with varying degrees | prevented Vero cells from being infected with SARS-CoV-2 | reached statistical significance across all main and sensitivity analyses | inhibition of viral replication was not observed | reached statistical significance across all main and sensitivity analyses |  |
| CNCCC(Oc1ccc(C(F)(F)F)cc1)c1ccccc1 (stereo not drawn) [Fluoxetine, fluoxetine] | inhibited ASM and the formation of ceramide-enriched membrane domains | inhibited ASM; also recorded: in vitro inhibit acid sphingomyelinase with varying degrees | prevented Vero cells from being infected with SARS-CoV-2 |  | inhibition of viral replication |  | Infection of cultured epithelial cells with SARS-CoV-2 (in words) (SARS-CoV-2 [8]): inhibition of the infection of cultured epithelial cells with SARS-CoV-2 |
| OCCOCCN1CCN(C(c2ccccc2)c2ccc(Cl)cc2)CC1 (stereo not drawn) [Hydroxyzine, 2-[2-[4-[(4-chlorophenyl)-phenylmethyl]piperazin-1-yl]ethoxy]ethanol] |  |  |  | reached statistical significance across all main and sensitivity analyses |  | reached statistical significance across all main and sensitivity analyses | Antagonist action at the serotonin 5-HT2A-receptor (in words) [9]: weakly acts as an antagonist; Antagonist action at the dopamine D2 receptor (in words) (dopamine D2 receptor): weakly acts as an antagonist; Antagonist action at the α1-adrenergic receptor (in words) (α1-adrenergic receptor): weakly acts as an antagonist; Association of cumulative dose with risk of death (in words) (COVID-19 [10]; higher rather than lower cumulative doses): significantly associated with lower risk of death; also recorded: significantly stronger at higher rather than lower cumulative doses; Association of use with risk of death (in words) (COVID-19 [10]; hospitalized adult patients with COVID-19): significantly and substantially associated with reduced risk of death; also recorded: significantly associated with reduced mortality in patients hospitalized for COVID-19; also recorded: significantly and substantially associated with lower risk of death |
| COCCCC/C(=N\OCCN)c1ccc(C(F)(F)F)cc1 [fluvoxamine] |  | in vitro inhibit acid sphingomyelinase with varying degrees |  |  |  |  | Effect on COVID-19 disease progression (in words) (COVID-19 [11]): significant protective effects on COVID-19 disease progression |
